From patent US9622987B2, “Synergistic pharmaceutical composition useful for the treatment of lung cancer” (Council of Scientific & Industrial Research, priority 2012, dated 2017)

Tested on: Lung Cancer cell Line (A-549)
Experiment: Cell death / viability of A549 lung cancer cells exposed to vapour (MTT, trypan blue)
Format: cell-based
Settings: for activity so far lung cancer cell death is concerned (FIG. 1C): vapors of single compounds, 1:2000 dilution, 48 h, A549
Protocol: The lung cancer cell line, A-549 were cultured in DMEM (Dulbecco's Modified Eagle Medium) containing Earle's salts and non-essential amino acids supplemented with 10% fetal calf serum, penicillin (100 U/ml) and streptomycin (100 μg/ml) in a humidified 95% O2/5% CO2 atmosphere at 37° C. Confluent cells were subcultured by trypsinization and subsequently seeded in 6 well culture plates containing DMEM with essential supplements.
After CVp treatment, cells were washed with PBS, trypsinized and re-suspended in complete growth medium. Trypan blue (0.4%) was added to the cell suspension and both live and dead cells were counted using a heamocytometer.
Cell viability was determined by performing MTT assay (Chemicon, Temecula, Calif., USA) according to manufacturer's instructions. Briefly, cells were plated in 96 well plates. Overnight after cell plating, cells were incubated with CVp. Briefly, 10 μL of 3-(4,5-dimethylthiazol-2-yl)-2-5-diphenyl tetrazolium bromide (MTT) was added to each well for 4 h at 37° C. After solubilization in 100 μL 1(N) isopropanol/0.04(N) HCl, absorbance was read at 595 nm in microplate reader (Thermo Electron Corporation, MA, USA).
The vapors generated from each of these wells were exposed to cells at 1:2000 dilution for 48 h. […] We therefore used the vapor from these combined compounds which is henceforth termed as Combined Vapour (CVp=C2+C3+C4).

Compound | Activity in vapour form % of cell death for Lung Cancer cell Line (A-549) [%] | activity so far lung cancer cell death is concerned (FIG. 1C)
C=C(C)[C@@H]1CC[C@@H](C)C[C@H]1O [Compound C3, Isopulegol] | 36.0 ± 4.5 | –
CC(C)=CCCC(C)CC=O (stereo not drawn) [Compound C1, Citronellal] | 12.5 ± 3.6 | poor activity
CC(C)=CCCC(C)CCO (stereo not drawn) [Compound C4, Citronellol] | 70.0 ± 6.0 | highest activity
C=C(C)C1CCC(C)CC1O (stereo not drawn) [Compound C2, Neo-isopulegol] | 30.5 ± 5.0 | –
